One data set relates to anesthetized rat. The data set is described as follows: Anesthetized rat spirometry screening assay. Format: in vivo. The conditions noted are these: 2 minute AUC of minute volume increase vs. comparator N-[2,6-di-(n-propylamino)-[1,3]pyrimidin-4-yl]-N,O-dimethyl-hydroxylamine. The source says: Effect of Compounds of the Invention on Respiratory Rate (RR), Tidal Volume (VT), and the Product Minute Volume Using an Anesthetized Rat Spirometry Screening Assay
Anesthetized rats provide a quick method of screening compounds for respiratory and cardiovascular activity. In contrast to the conscious rat model, this model offers an experimental set up with less variation in the baseline cardiovascular and respiratory measures. Compounds screened in this assay may be examined in a conscious rat model.
Rats were initially anesthetized with 3% isoflurane (inhaled) and femoral artery and vein cannulas were surgically inserted. Once cannulated, the rats were transitioned to urethane anesthesia (1.5 g/kg; i.v.) and a tracheal cut-down was performed. After placing the tracheal cannula, it was connected to a pneumotachometer to record respiratory airflow from which respiratory rate (RR), tidal volume (VT), and their product minute volume were derived. After the surgical preparation was complete, animals were allowed to stabilize for 30 minutes while respiratory rate, tidal volume, minute volume, blood pressure and heart rate were recorded continuously. Arterial blood gases (ABG) were obtained from arterial blood collected from the femoral artery. ABG measurements were taken before and 6 minutes after vehicle and each dose of compound administered. Compounds being screened were administered via bolus injections through the venous cannula followed by a saline flush (total time of administration is approximately 30 seconds), and the animal was monitored for at least 6 minutes for changes in cardiovascular efforts. Compounds were prepared in formulations identified to ensure optimal solubility. As such, vehicle controls were matched for the formulation of each compound tested. Dosing of the compound being screened was 0.1 and 0.3 mg/kg. The next dose was not administered until all cardiovascular and respiratory measures had returned to baseline levels. The positive control compounds used were N-[4,6-di-(n-propylamino)-[1,3,5]triazin-2-yl]-N,O-dimethyl-hydroxylamine or N-[2,6-di-(n-propylamino)-[1,3]pyrimidin-4-yl]-N,O-dimethyl-hydroxylamine (both administered at the end of each screening experiment (0.3 mg/kg dose) to validate the experiment and also to serve as a measure with which the compound being screened could be compared.
Data were analyzed by collecting cardiovascular and respiratory data in 30 second averages (BINs). Data were plotted 2 minutes before challenge and then 6 minutes after challenge.

The next data set in a line: in vitro. The conditions noted are these: male, rat, microsomes.
A short description of data set [1]: In vitro metabolic stability in human liver microsomes (HLM). The conditions noted are these: both, human, liver microsomes. For orientation: Liver microsomes are a subcellular fraction often used to study metabolism.

Structures are written as SMILES. Structures can show the parent of a compound that is named as a salt.

Broadly, the half-life is the time in which the quantity being followed falls by half.

On to `CCCCNc1nc(NCCC)c2nc(NCCCC)nc(NCCC)c2n1.Cl` [Compound 8a, N^2,N^6-Di-n-butyl-N^4,N^8-di-n-propyl-pyrimido[5,4-d]pyrimidine-2,4,6,8-tetraamine hydrochloride], for which, in the data set with anesthetized rat, the “AUC MV Inc (2 min) (ratio vs. std*)” value came to 0.14 ratio vs. std. For the same compound, the half-life at 5 μM is 5.52 h in “in vitro” and more than 8.33 h in data set [1].
The like results for `CCCNc1nc(NC(C)C)nc2c(NCCC)nc(NC(C)C)nc12.Cl` [Compound 10a, N^2,N^6-Di-i-propyl-N^4,N^8-di-n-propyl-pyrimido[5,4-d]pyrimidine-2,4,6,8-tetraamine hydrochloride] were, in that order, 0.07 ratio vs. std, 2.7 h and 7.7 h.
The like results for `C#CCNc1nc(NC)nc2c(NCCC)nc(NC)nc12.Cl` [Compound 13a, N^2,N^6-Dimethyl-N^4-n-propyl-N^8-prop-2-ynyl-pyrimido[5,4-d]pyrimidine-2,4,6,8-tetraamine hydrochloride] were, in that order, 0.56 ratio vs. std, 3.4 h and 5.7 h.
The like results for `CCCNc1nc(N(C)OC)nc2c(NCCC)nc(Cl)nc12.Cl` [Compound 17a, N-(6-Chloro-4,8-bis-n-propylamino-pyrimido[5,4-d]pyrimidin-2-yl)-O,N-dimethyl-hydroxylamine hydrochloride] were, in that order, 0.05 ratio vs. std, 0.417 h and 0.483 h.
As to `CCCNc1nc(N(C)OC)nc2c(NCCC)nc(N(C)OC)nc12` [Compound 19a, N^2,N^6-Bis-(N-Methoxy(N-methyl)amino)-N^4,N^8-bis-n-propylamino-pyrimido[5,4-d]pyrimidine hydrochloride], the “AUC MV Inc (2 min) (ratio vs. std*)” value with anesthetized rat came to 0.00 ratio vs. std. In addition, the half-life at 5 μM in the data set “in vitro” is 1.77 h; in data set [1], 1.83 h.
The like results for `CCCNc1nc(N(C)OC)nc2c(NCCC)nc(NC)nc12.Cl` [Compound 24a, O,N-Dimethyl-N-(6-methylamino-4,8-bis-n-propylamino-pyrimido[5,4-d]pyrimidin-2-yl)-hydroxylamine hydrochloride] were, in that order, 0.43 ratio vs. std, 2.7 h and 1.98 h.
As to `CCCNc1nc(N(C)C)nc2c(NCCC)nc(NC)nc12.Cl` [Compound 29a, N^2,N^2,N^6-Trimethyl-N^4,N^8-di-n-propyl-pyrimido[5,4-d]pyrimidine-2,4,6,8-tetraamine hydrochloride], in the data set with anesthetized rat, the “AUC MV Inc (2 min) (ratio vs. std*)” value stood at 0.95 ratio vs. std. Moreover, the half-life at 5 μM in “in vitro” was found to be 0.733 h; in data set [1], 1.57 h.
In the same order, the values of `CCCNc1nc(N(CC)CC)nc2c(NCCC)nc(NC)nc12.Cl` [Compound 31a, N^2,N^2-Diethyl-N^6-methyl-N^4,N^8-di-n-propyl-pyrimido[5,4-d]pyrimidine-2,4,6,8-tetraamine hydrochloride] are 0.01 ratio vs. std, 1.8 h and 6.95 h.
The like results for `CCCNc1nc(NCCO)nc2c(NCCC)nc(NC)nc12` [Compound 33a, 2-(6-Methylamino-4,8-bis-n-propylamino-pyrimido[5,4-d]pyrimidin-2-yl-amino)-ethanol] were, in that order, 0.29 ratio vs. std, 1.77 h and 1.92 h.
In the same order, the values of `CCCNc1nc(NCCOC)nc2c(NCCC)nc(NC)nc12` [Compound 35a, N^2-(2-Methoxyethyl)-N^6-methyl-N^4,N^8-di-n-propyl-pyrimido[5,4-d]pyrimidine-2,4,6,8-tetraamine] are 1.33 ratio vs. std, 1.7 h and 3.75 h.
For `CCCNc1nc(NCCOC(C)C)nc2c(NCCC)nc(NC)nc12` [Compound 37a, N^2-(2-Isopropoxy-ethyl)-N^6-methyl-N^4,N^8-di-n-propyl-pyrimido[5,4-d]pyrimidine-2,4,6,8-tetraamine], the “AUC MV Inc (2 min) (ratio vs. std*)” value with anesthetized rat came out at 1.23 ratio vs. std. In addition, the half-life at 5 μM in the data set “in vitro” came out at 1.27 h; in data set [1], 2.25 h.
In the case of `CCCNc1nc(N2CCCCC2)nc2c(NCCC)nc(NC)nc12` [Compound 43a, N^2-Methyl-N^4,N^8-di-n-propyl-6-(piperidin-1-yl)-pyrimido[5,4-d]pyrimidine-2,4,8-triamine], the “AUC MV Inc (2 min) (ratio vs. std*)” value in the data set on anesthetized rat worked out at 0.20 ratio vs. std. The half-life at 5 μM came out at 1.15 h in “in vitro” and 1.63 h in data set [1].
For `CCCNc1nc(N2CCCC2)nc2c(NCCC)nc(NC)nc12` [Compound 45a, N^2-Methyl-N^4,N^8-di-n-propyl-6-pyrrolidin-1-yl-pyrimido[5,4-d]pyrimidine-2,4,8-triamine], in the data set on anesthetized rat, the “AUC MV Inc (2 min) (ratio vs. std*)” value is 0.41 ratio vs. std. Moreover, the half-life at 5 μM (in “in vitro”; in data set [1]) was more than 8.33 h each time.
As for `CCCNc1nc(N2CCC(OC)CC2)nc2c(NCCC)nc(NC)nc12` [Compound 47a, N^2-Methyl-N^4,N^8-di-n-propyl-6-(4-methoxy-piperidin-1-yl)-pyrimido[5,4-d]pyrimidine-2,4,8-triamine], in the data set with anesthetized rat, the “AUC MV Inc (2 min) (ratio vs. std*)” value worked out at 0.00 ratio vs. std. In addition, the values for the half-life at 5 μM (in the data set “in vitro”; in data set [1]) were 1.77 h and 1.83 h, respectively.
The like results for `CCCNc1nc(NCc2cccc(Cl)c2C)nc2c(NCCC)nc(NC)nc12` [Compound 49a, N^2-(3-Chloro-2-methyl-benzyl)-N^6-methyl-N^4,N^8-di-n-propyl-pyrimido[5,4-d]pyrimidine-2,4,6,8-tetraamine hydrochloride] were, in that order, 0.11 ratio vs. std, 1.4 h and 3.17 h.
The like results for `CCCNc1nc(NCc2ccc(Cl)c(Cl)c2)nc2c(NCCC)nc(NC)nc12` [Compound 51a, N^2-(3,4-Dichlorobenzyl)-N^6-methyl-N^4,N^8-di-n-propyl-pyrimido[5,4-d]pyrimidine-2,4,6,8-tetraamine] were, in that order, 0.08 ratio vs. std, 1.2 h and 2.12 h.
The like results for `CCCNc1nc(NCc2ccc(F)cc2)nc2c(NCCC)nc(NC)nc12` [Compound 53a, N^2-(4-Fluorobenzyl)-N^6-methyl-N^4,N^8-di-n-propyl-pyrimido[5,4-d]pyrimidine-2,4,6,8-tetraamine] were, in that order, 0.06 ratio vs. std, 1.57 h and 1.32 h.
Turning to `CCCNc1nc(NC)c2nc(Cl)nc(NC)c2n1` [Compound 54, 6-Chloro-N^4,N^8-dimethyl-N^2-n-propyl-pyrimido[5,4-d]pyrimidine-2,4,8-triamine], the “AUC MV Inc (2 min) (ratio vs. std*)” value in the data set on anesthetized rat is given as 0.09 ratio vs. std. Moreover, the figures for the half-life at 5 μM (in the data set “in vitro”; in data set [1]) were 0.667 h and 1.37 h, respectively.
The like results for `CNc1nc(NC)c2nc(NC)nc(NC)c2n1.Cl` [Compound 79a, N^2,N^4,N^6,N^8-Tetramethyl-pyrimido[5,4-d]pyrimidine-2,4,6,8-tetraamine hydrochloride] were, in that order, 0.00 ratio vs. std, 6.47 h and more than 8.33 h.
In the same order, the values of `CCNc1nc(NC)c2nc(NCC)nc(NC)c2n1.Cl` [Compound 81a, N^2,N^6-Diethyl-N^4,N^8-dimethyl-pyrimido[5,4-d]pyrimidine-2,4,6,8-tetraamine hydrochloride] are 0.00 ratio vs. std, 4.57 h and 3.3 h.
Consider `CCCCNc1nc(NC)c2nc(NCCCC)nc(NC)c2n1.Cl` [Compound 83a, N^2,N^6-Di-n-butyl-N^4,N^8-dimethyl-pyrimido[5,4-d]pyrimidine-2,4,6,8-tetraamine hydrochloride], for which the “AUC MV Inc (2 min) (ratio vs. std*)” value in the data set with anesthetized rat was found to be 1.05 ratio vs. std. The figures for the half-life at 5 μM (in “in vitro”; in data set [1]) were 5.58 h and 4.15 h, respectively.
Turning to `CCCNc1nc(NCC2CC2)nc2c(NCCC)nc(NCC3CC3)nc12` [Compound 140a, N^2,N^6-Bis-cyclopropylmethyl-N^4,N^8-di-n-propyl-pyrimido[5,4-d]pyrimidine-2,4,6,8-tetraamine], the figures for the half-life at 5 μM (in “in vitro”; in data set [1]) were 0.833 h and 1.18 h, respectively.
For the compound `CCCNC(=O)CNc1nc(NC)c2nc(NCCC)nc(NC)c2n1.Cl` [Compound 157a, N-n-Propyl-[2-(4,8-bis-methylamino-6-propylamino-pyrimido[5,4-d]pyrimidin-2-ylamino)]-acetamide hydrochloride], the “AUC MV Inc (2 min) (ratio vs. std*)” value with anesthetized rat was 0.04 ratio vs. std.

The values are drawn from US9643971B2 (GALLEON PHARMACEUTICALS, INC., priority 2013, dated 2017).
